Reference: patent US6964959B2, “Use of a methylol-containing compound to treat tumors” (Carter Wallace, Inc., priority 1999, dated 2005)

Key:
human cancer cell lines = assay: Cytotoxic activity of taurultam in human cancer cell lines; type: cell-based
Description: The cytotoxic activity of taurultam was evaluated in vitro using the same human cancer cell lines as described above. […] The data also indicate that the cytotoxic effect is directly proportionate to the number of methylol molecules liberated per molecule of methylol-containing compound

[1] = tested on: MDR-transfected glioblastoma cells; assay: Cytotoxicity in MDR-transfected glioblastoma cells; details: transfected vs untransfected glioblastoma cells
Description: The neoplastic cell lines used in the survey were standard tumor cell lines, e.g., PA1 human ovarian cell line, SKOV3 human ovarian cell line, HT29 human colon tumor cell line, DU145 human prostate tumor cell line, U251 human glioblastoma cell line, U251-MDR human glioblastoma cell line transfected with DNA encoding MDR, T98G human glioblastoma cell line, SP-1 human leukemia cell line, and Daudi human leukemia cell line.
Glioblastoma cells were transfected with a gene encoding multiple drug resistance (MDR).

O=S1(=O)CCNCN1 [taurultam]
induction of apoptotic death (human cancer cell lines; cancer cells vs normal control cells): induced apoptotic death of cancer cells but not normal control cells | cytotoxic activity relative to the activity observed with taurolidine (human cancer cell lines; same human cancer cell lines as for taurolidine): approximately 75%

COc1cccc2c1C(=O)c1c(O)c3c(c(O)c1C2=O)C[C@@](O)(C(=O)CO)C[C@@H]3O[C@H]1C[C@H](N)[C@H](O)[C@H](C)O1 [adriamycin]
resistance of MDR-transfected cells [1]: 100-1000 times
